Patent US4410512A, “Combinations having synergistic pituitary growth hormone releasing activity” (Beckman Instruments, Inc., priority 1981, dated 1983)
Square brackets hold non-standard residues; d marks the D form. Peptide text beside a SMILES is read from it.

Test system: pituitaries
Experiment: In vitro growth hormone release study (incubated rat pituitaries, GH by RIA)
Type: cell-based
Conditions: mean of 9 assays ± SEM
Experimental: Female rats of the CD-1 strain were housed in a constant temperature room at 24° C. with 14 hours light and 10 hours darkness. The rats were fed Purina brand rat chow ab libitum. All studies were started between 0800 and 1000 hours.
Pituitaries were removed from 20 day old female rats. In each polytetrafluoroethylene beaker (10 ml) was incubated two pituitaries at 36° C. in 1 ml of lactated Ringer's solution in a Dubnoff Shaker (90 cycles/min.). All medium in each beaker was removed each hour (e.g., P1, P2, I3, I4, I5) and then fresh medium was added back to each beaker. Each medium removed was assayed for GH, in duplicate, by a standard radioimmunoassay (RIA).
The growth hormone agonist of Example 1 was not added to the incubation mediums employed during the first hour of the incubation period (P1) or to the incubation mediums employed during the second hour of the incubation period (P2). The growth hormone agonist of Example 1 was dissolved in dimethylsulfoxide (DMSO; 10:1, agonist:DMSO), added to each incubation medium employed during the third hour of the incubation period (I3), to each medium employed during the fourth hour of the incubation period (I4), and to each medium employed during the fifth hour of the incubation period (I5). The release of growth hormone was recorded as ΔGH and calculated by subtracting the amount of GH released at P2 from that released at I3, I4, and I5. The agonist activity was determined from the release at I3, I4, and I5.

Row | Compound | ΔGH (peptide dosage 1 ng/ml incubation medium) | ΔGH (peptide dosage 3 ng/ml incubation medium) | ΔGH (peptide dosage 10 ng/ml incubation medium) | ΔGH (zeranol dosage 300 ng/ml incubation medium, pituitaries of 20 day old female rats, I3-I5 minus P2) | ΔGH (zeranol dosage 3,000 ng/ml incubation medium) | ΔGH (zeranol dosage 30,000 ng/ml incubation medium) | ΔGH (zeranol dosage 100,000 ng/ml incubation medium)
1 | C[C@H](NC(=O)[C@@H](Cc1c[nH]c2ccccc12)NC(=O)[C@@H](N)Cc1c[nH]cn1)C(=O)N[C@@H](Cc1c[nH]c2ccccc12)C(=O)N[C@H](Cc1ccccc1)C(=O)N[C@@H](CCCCN)C(N)=O [H2 -His-D-Trp-Ala-Trp-D-Phe-Lys-NH2] (H-H[dW]AW[dF]K-NH2) | 887 ± 98 ng/ml incubation medium | 821 ± 138 ng/ml incubation medium | 2,759 ± 315 ng/ml incubation medium |  |  |  | 
2 | C[C@H]1CCC[C@H](O)CCCCCc2cc(O)cc(O)c2C(=O)O1 [Zeranol, zeranol] |  |  |  | 83 ± 63 ng/ml incubation medium | 87 ± 59 ng/ml incubation medium | 683 ± 187 ng/ml incubation medium | -133 ± 98 ng/ml incubation medium
